According to ChEMBL document CHEMBL3046659, “Synthesis and Biological Evaluation of Allosteric A1-Adenosine Receptor Modulators Structurally Related to (2-Amino-4,5,6,7-Tetrahydro-Benzo[B]Thiophen-3-YL)-(4-Chloro-Phenyl)-Methanone, a Potent Compound Useful to Reduce Neuropathic Pain” (Med Chem Res, 2005):
Activity calls are given as the source filed them. No cut-off for these calls is given here.

What was measured:
[1] = biological target: T1, Adenosine receptor A1 (Homo sapiens) (UniProt P30542); assay: Antagonist activity at Homo sapiens (human) Adenosine A1 receptor expressed in CHO cells assessed as cAMP level at 0.01 to 10 uM after 6 min by radioimmunoassay; type: functional, cell-based
T1 sequence (whole entry): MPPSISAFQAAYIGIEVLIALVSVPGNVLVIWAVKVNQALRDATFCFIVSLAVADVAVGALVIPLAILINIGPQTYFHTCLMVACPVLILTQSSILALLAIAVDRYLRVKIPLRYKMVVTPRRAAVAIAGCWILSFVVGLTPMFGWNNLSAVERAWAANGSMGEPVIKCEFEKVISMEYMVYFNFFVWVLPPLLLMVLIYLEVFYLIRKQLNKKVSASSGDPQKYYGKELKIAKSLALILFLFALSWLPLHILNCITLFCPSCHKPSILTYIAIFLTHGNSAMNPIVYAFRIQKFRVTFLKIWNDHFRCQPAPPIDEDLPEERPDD

[2] = biological target: T1, Adenosine receptor A1 (Homo sapiens); assay: Inverse agonist activity at Homo sapiens (human) Adenosine A1 receptor expressed in CHO cells assessed as increase in cAMP level at 10 uM after 6 min by radioimmunoassay; type: functional, cell-based
[3] = biological target: T1, Adenosine receptor A1 (Homo sapiens); assay: Inverse agonist activity at Homo sapiens (human) Adenosine A1 receptor expressed in CHO cells assessed as increase in cAMP level at 1 uM after 6 min by radioimmunoassay; type: functional, cell-based
[4] = biological target: T1, Adenosine receptor A1 (Homo sapiens); assay: Allosteric modulation of Homo sapiens (human) Adenosine A1 receptor expressed in CHO cells assessed as reduction of cAMP level at 10 uM after 6 min by radioimmunoassay; type: functional, cell-based; parameters: scale not given: the % may be the effect or the level left
[5] = biological target: T1, Adenosine receptor A1 (Homo sapiens); assay: Allosteric modulation of Homo sapiens (human) Adenosine A1 receptor expressed in CHO cells assessed as reduction of cAMP level at 1 uM after 6 min by radioimmunoassay; type: functional, cell-based; parameters: scale not given: the % may be the effect or the level left
[6] = biological target: T1, Adenosine receptor A1 (Homo sapiens); assay: Allosteric modulation of Homo sapiens (human) Adenosine A1 receptor expressed in CHO cells assessed as reduction of cAMP level at 0.1 uM after 6 min by radioimmunoassay; type: functional, cell-based; parameters: scale not given: the % may be the effect or the level left
[7] = biological target: T1, Adenosine receptor A1 (Homo sapiens); assay: Allosteric modulation of Homo sapiens (human) Adenosine A1 receptor expressed in CHO cells assessed as reduction of cAMP level at 0.01 uM after 6 min by radioimmunoassay; type: functional, cell-based; parameters: scale not given: the % may be the effect or the level left
[8] = biological target: T1, Adenosine receptor A1 (Homo sapiens); assay: Inverse agonist activity at Homo sapiens (human) Adenosine A1 receptor expressed in CHO cells assessed as increase in cAMP level at 0.01 uM after 6 min by radioimmunoassay; type: functional, cell-based
[9] = biological target: T1, Adenosine receptor A1 (Homo sapiens); assay: Allosteric enhancer activity at Homo sapiens (human) Adenosine A1 receptor expressed in CHO cells assessed as […] in cAMP level at 10 uM after 6 min by radioimmunoassay; type: functional, cell-based
[10] = biological target: T1, Adenosine receptor A1 (Homo sapiens); assay: Inverse agonist activity at Homo sapiens (human) Adenosine A1 receptor expressed in CHO cells assessed as increase in cAMP level at 0.1 uM after 6 min by radioimmunoassay; type: functional, cell-based
[11] = biological target: T2, Adenosine receptor A1 (Rattus norvegicus) (UniProt P25099); assay: Displacement of [3H]CCPA from A1 receptor in Rattus norvegicus (rat) brain membrane at 10 uM after 90 min
T2 sequence (whole entry): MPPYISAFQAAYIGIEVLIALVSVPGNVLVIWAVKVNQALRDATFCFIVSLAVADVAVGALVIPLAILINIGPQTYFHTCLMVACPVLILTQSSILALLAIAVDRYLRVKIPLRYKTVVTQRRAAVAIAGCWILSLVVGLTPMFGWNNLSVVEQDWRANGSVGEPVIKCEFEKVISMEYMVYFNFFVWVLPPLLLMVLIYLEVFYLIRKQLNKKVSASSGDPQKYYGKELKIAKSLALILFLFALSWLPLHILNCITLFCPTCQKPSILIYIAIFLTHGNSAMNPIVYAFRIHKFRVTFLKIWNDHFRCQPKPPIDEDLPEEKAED

[12] = biological target: T1, Adenosine receptor A1 (Homo sapiens); assay: Displacement of [3H]CCPA from A1 receptor in Homo sapiens (human) brain membrane at 10 uM after 90 min
[13] = biological target: T1, Adenosine receptor A1 (Homo sapiens); assay: Displacement of [3H]CCPA from Homo sapiens (human) A1 receptor expressed in CHO cells at 10 uM after 90 min; type: cell-based

Compound | Activity [1] | Activity [2] | Activity [3] | Activity [4] [%] | Activity [5] [%] | Activity [6] [%] | Activity [7] [%] | Activity [8] | Activity [9] | Activity [10] | Activity [11] [%] | Activity [12] [%] | Activity [13] [%] | Bmax [13] [%]
Nc1sc2c(c1C(=O)c1ccc(Cl)cc1)CCC1(C2)OCCO1 | Active | Active | Active | 28 | 3 | -14 | -17 | – | – | – | – | – | – | –
CS(=O)(=O)OC1CCc2c(sc(N)c2C(=O)c2ccc(Cl)cc2)C1 (stereo unspecified) | Active | Active | Active | 46 | 15 | -1 | 11 | Active | – | – | – | – | – | –
Nc1sc2c(c1C(=O)c1ccc(Cl)cc1)CCC(Cc1ccccc1)C2 (stereo unspecified) | Active | Active | – | 16 | -1 | -6 | -11 | – | – | – | – | – | – | –
Nc1sc2c(c1C(=O)c1ccc(Cl)cc1)CCCC2 | Active | – | – | -55 | -26 | -23 | -8 | – | – | – | – | – | – | –
COc1ccc(C2SCc3c(sc(N)c3C(=O)c3ccc(Cl)cc3)S2)cc1 (stereo unspecified) | Active | – | – | -5 | -17 | -13 | 4 | Active | – | – | – | – | – | –
Nc1sc2c(c1C(=O)c1ccc(Cl)cc1)CCS2 | – | – | Active | -35 | 1 | 11 | -1 | – | Active | Active | – | – | – | –
Nc1sc2c(c1C(=O)c1ccc(Cl)cc1)CCSC2 | Active | – | Active | -0.3 | 16 | -10 | 15 | Active | – | – | – | – | – | –
Nc1sc2c(c1C(=O)c1ccc(Cl)cc1)CCC(O)C2 (stereo unspecified) | Active | – | – | 52 | -2 | -13 | -3 | – | – | – | – | – | – | –
Nc1sc2c(c1C(=O)c1ccc(Cl)cc1)CCC(c1ccccc1)C2 (stereo unspecified) | Active | – | – | -7 | -11 | -1 | 20 | Active | – | – | 33 | 29 | 65 | 53
Nc1sc2ccccc2c1C(=O)c1ccc(Cl)cc1 | – | – | – | -29 | -6 | -5 | -8 | – | Active | – | – | – | – | –
